For two molecules, IC50 results are on record in ChEMBL document CHEMBL1139945, “Synthesis and biological evaluation of an 123I-labeled bicyclic nucleoside analogue (BCNA) as potential SPECT tracer for VZV-tk reporter gene imaging” (Bioorg Med Chem Lett, 2007).

pIC50: −log10 of the molar value.

The assay concerns the target T1, Thymidine kinase (Varicella-zoster virus (strain Dumas) (HHV-3) (Human herpesvirus 3), UniProt P09250).
T1 sequence (P09250 whole entry): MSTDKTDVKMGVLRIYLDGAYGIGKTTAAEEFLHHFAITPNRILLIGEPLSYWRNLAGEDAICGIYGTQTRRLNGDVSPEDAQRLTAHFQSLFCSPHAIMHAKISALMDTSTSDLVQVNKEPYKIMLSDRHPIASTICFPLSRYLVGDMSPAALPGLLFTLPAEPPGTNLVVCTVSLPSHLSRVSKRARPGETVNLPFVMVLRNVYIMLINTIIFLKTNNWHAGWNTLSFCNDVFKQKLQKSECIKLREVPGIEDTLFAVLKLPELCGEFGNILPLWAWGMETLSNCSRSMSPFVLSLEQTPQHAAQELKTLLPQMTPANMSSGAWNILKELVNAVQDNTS
The assay is described as follows: Inhibition of VZV thymidine kinase. On the set-up: species or system Human alphaherpesvirus 3.

Regarding `O=c1nc2oc(-c3ccc(I)c(O)c3)cc2cn1[C@H]1C[C@H](O)[C@@H](CO)O1`, the pIC50 (commonly −log10 of the IC50, conventionally taken in molar units) is 5.38.
Regarding `O=c1nc2oc(-c3cccc(O)c3)cc2cn1[C@H]1C[C@H](O)[C@@H](CO)O1`, the pIC50 is 5.59.
